Experimental data: publication PMC10209615, “Pharmacological inhibition of LSD1 suppresses growth of hepatocellular carcinoma by inducing GADD45B” (MedComm, 2023)

How the values were obtained:
Assay in all cases: Kinase activity detection (Eurofins)
Type in all cases: biochemical
BRK = target: T1, BRK (Homo sapiens, UniProt Q13882); details: ZY0511 1 µM, read-out: Inhibition rate
T1 construct: purchased Eurofins Pharma Discovery Services (KinaseProfiler)
Method: (§1) The activity of ZY0511 against 104 cancer‐related kinases was carried out by Eurofins Pharma Discovery Services (Celle Lévescault, France).

PI3 Kinase (p120γ) = target: T2, PI3 Kinase (p120γ) (Homo sapiens, UniProt P48736); details: ZY0511 1 µM, read-out: Inhibition rate
T2 construct: purchased Eurofins Pharma Discovery Services (KinaseProfiler)
Method: as §1

EphB4 = target: T3, EphB4 (Homo sapiens, UniProt P54760); details: ZY0511 1 µM, read-out: Activation rate
T3 construct: purchased Eurofins Pharma Discovery Services (KinaseProfiler)
Method: as §1

Fms = target: T4, Fms (Homo sapiens, UniProt P07333); details: ZY0511 1 µM, read-out: Inhibition rate
T4 construct: purchased Eurofins Pharma Discovery Services (KinaseProfiler)
Method: as §1

Tie2 = target: T5, Tie2 (Homo sapiens, UniProt Q02763); details: ZY0511 1 µM, read-out: Inhibition rate
T5 construct: purchased Eurofins Pharma Discovery Services (KinaseProfiler)
Method: as §1

Abl (T315I) = target: T6, Abl (T315I) (Homo sapiens, UniProt P00519, T315I); details: ZY0511 1 µM, read-out: Inhibition rate
T6 construct: purchased Eurofins Pharma Discovery Services
Method: as §1

PI3 Kinase (p110δ/p85α) = target: T7, PI3 Kinase (p110δ/p85α) (Homo sapiens, UniProt O00329); details: ZY0511 1 µM, read-out: Inhibition rate
T7 construct: purchased Eurofins Pharma Discovery Services (KinaseProfiler)
Method: as §1

cKit (D816H) = target: T8, cKit (D816H) (Homo sapiens, UniProt P10721, D816H); details: ZY0511 1 µM, read-out: Activation rate
T8 construct: purchased Eurofins Pharma Discovery Services (KinaseProfiler)
Method: as §1

EGFR = target: T9, EGFR (Homo sapiens, UniProt P00533); details: ZY0511 1 µM, read-out: Inhibition rate
T9 construct: purchased Eurofins Pharma Discovery Services (KinaseProfiler)
Method: as §1

DNA-PK = target: T10, DNA-PK (Homo sapiens, UniProt P78527)
T10 construct: purchased Eurofins Pharma Discovery Services
Method: as §1

MELK = target: T11, MELK (Homo sapiens, UniProt Q14680); details: ZY0511 1 µM, read-out: Inhibition rate
T11 construct: purchased Eurofins Pharma Discovery Services
Method: as §1

ROCK-I = target: T12, ROCK-I (Homo sapiens, UniProt Q13464); details: ZY0511 1 µM, read-out: Inhibition rate
T12 construct: purchased Eurofins Pharma Discovery Services
Method: as §1

p70S6K = target: T13, p70S6K (Homo sapiens, UniProt P23443); details: ZY0511 1 µM, read-out: Inhibition rate
T13 construct: purchased Eurofins Pharma Discovery Services
Method: as §1

MST3 = target: T14, MST3 (Homo sapiens, UniProt Q9Y6E0); details: ZY0511 1 µM, read-out: Inhibition rate
T14 construct: purchased Eurofins Pharma Discovery Services (KinaseProfiler)
Method: as §1

CK1γ1 = target: T15, CK1γ1 (Homo sapiens, UniProt Q9HCP0); details: ZY0511 1 µM, read-out: Inhibition rate
T15 construct: purchased Eurofins Pharma Discovery Services
Method: as §1

ZIPK = target: T16, ZIPK (Homo sapiens, UniProt O43293); details: ZY0511 1 µM, read-out: Inhibition rate
T16 construct: purchased Eurofins Pharma Discovery Services (KinaseProfiler)
Method: as §1

PDGFRα = target: T17, PDGFRα (Homo sapiens, UniProt P16234); details: ZY0511 1 µM, read-out: Activation rate
T17 construct: purchased Eurofins Pharma Discovery Services (KinaseProfiler)
Method: as §1

PKCι = target: T18, PKCι (Homo sapiens, UniProt P41743); details: ZY0511 1 µM, read-out: Inhibition rate
T18 construct: purchased Eurofins Pharma Discovery Services
Method: as §1

PKCθ = target: T19, PKCθ (Homo sapiens, UniProt Q04759); details: ZY0511 1 µM, read-out: Inhibition rate
T19 construct: purchased Eurofins Pharma Discovery Services
Method: as §1

FGFR2 = target: T20, FGFR2 (Homo sapiens, UniProt P21802); details: ZY0511 1 µM, read-out: Inhibition rate
T20 construct: purchased Eurofins Pharma Discovery Services
Method: as §1

Ros = target: T21, Ros (Homo sapiens, UniProt P08922); details: ZY0511 1 µM, read-out: Inhibition rate
T21 construct: purchased Eurofins Pharma Discovery Services
Method: as §1

Flt4 = target: T22, Flt4 (Homo sapiens, UniProt P35916)
T22 construct: purchased Eurofins Pharma Discovery Services
T22 sequence (P35916 25-1363, species assumed): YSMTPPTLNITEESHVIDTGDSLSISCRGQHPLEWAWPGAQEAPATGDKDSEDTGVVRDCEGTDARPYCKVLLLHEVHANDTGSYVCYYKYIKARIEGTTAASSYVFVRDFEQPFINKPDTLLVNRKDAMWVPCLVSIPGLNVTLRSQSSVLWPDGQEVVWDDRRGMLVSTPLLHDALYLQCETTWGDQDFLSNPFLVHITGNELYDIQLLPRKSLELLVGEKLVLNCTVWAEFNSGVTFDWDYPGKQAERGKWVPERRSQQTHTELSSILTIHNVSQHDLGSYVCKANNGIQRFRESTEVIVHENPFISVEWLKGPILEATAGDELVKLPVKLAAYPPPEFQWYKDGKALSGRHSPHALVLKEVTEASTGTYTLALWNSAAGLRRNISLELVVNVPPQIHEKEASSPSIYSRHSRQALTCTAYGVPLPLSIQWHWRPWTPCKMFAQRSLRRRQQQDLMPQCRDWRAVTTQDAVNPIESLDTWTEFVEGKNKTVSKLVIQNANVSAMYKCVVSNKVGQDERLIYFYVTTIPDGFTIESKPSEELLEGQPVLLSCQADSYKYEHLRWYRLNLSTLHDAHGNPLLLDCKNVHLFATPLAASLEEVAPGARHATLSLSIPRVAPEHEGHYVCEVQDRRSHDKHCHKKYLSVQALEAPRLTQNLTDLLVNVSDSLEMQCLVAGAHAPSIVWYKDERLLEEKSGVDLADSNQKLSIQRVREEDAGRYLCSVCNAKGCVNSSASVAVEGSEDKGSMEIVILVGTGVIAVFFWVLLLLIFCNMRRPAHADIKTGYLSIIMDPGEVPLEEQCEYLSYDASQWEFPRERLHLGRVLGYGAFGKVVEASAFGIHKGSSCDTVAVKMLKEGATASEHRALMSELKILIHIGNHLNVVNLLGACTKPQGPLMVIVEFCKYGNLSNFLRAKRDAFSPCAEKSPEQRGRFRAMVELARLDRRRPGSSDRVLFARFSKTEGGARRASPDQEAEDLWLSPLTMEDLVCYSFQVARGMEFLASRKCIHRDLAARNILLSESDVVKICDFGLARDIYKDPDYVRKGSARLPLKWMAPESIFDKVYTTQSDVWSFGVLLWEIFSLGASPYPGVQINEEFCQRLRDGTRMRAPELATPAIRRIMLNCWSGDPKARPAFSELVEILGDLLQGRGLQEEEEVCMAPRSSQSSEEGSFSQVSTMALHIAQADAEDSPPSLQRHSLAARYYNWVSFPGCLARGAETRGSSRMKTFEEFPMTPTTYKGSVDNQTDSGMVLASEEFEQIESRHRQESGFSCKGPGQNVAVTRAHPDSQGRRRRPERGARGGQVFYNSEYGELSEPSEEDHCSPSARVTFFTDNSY
Method: as §1

[1] = target: T23, PI3 Kinase (p110α (E545K)/p85α) (Homo sapiens, UniProt P42336, E545K); details: ZY0511 1 µM, read-out: Inhibition rate
T23 construct: purchased Eurofins Pharma Discovery Services (KinaseProfiler)
Method: as §1

Ret = target: T24, Ret (Homo sapiens, UniProt P07949); details: ZY0511 1 µM, read-out: Activation rate
T24 construct: purchased Eurofins Pharma Discovery Services (KinaseProfiler)
Method: as §1

PAK4 = target: T25, PAK4 (Homo sapiens, UniProt O96013); details: ZY0511 1 µM, read-out: Inhibition rate
T25 construct: purchased Eurofins Pharma Discovery Services (KinaseProfiler)
Method: as §1

EGFR (L861Q) = target: T26, EGFR (L861Q) (Homo sapiens, UniProt P00533, L861Q); details: ZY0511 1 µM, read-out: Inhibition rate
T26 construct: purchased Eurofins Pharma Discovery Services (KinaseProfiler)
Method: as §1

ARK5 = target: T27, ARK5 (Homo sapiens, UniProt O60285); details: ZY0511 1 µM
T27 construct: purchased Eurofins Pharma Discovery Services (KinaseProfiler)
Method: as §1

EGFR (L858R) = target: T28, EGFR (L858R) (Homo sapiens, UniProt P00533, L858R); details: ZY0511 1 µM, read-out: Inhibition rate
T28 construct: purchased Eurofins Pharma Discovery Services (KinaseProfiler)
Method: as §1

ALK = target: T29, ALK (Homo sapiens, UniProt Q9UM73); details: ZY0511 1 µM, read-out: Activation rate
T29 construct: purchased Eurofins Pharma Discovery Services (KinaseProfiler)
Method: as §1

Bmx = target: T30, Bmx (Homo sapiens, UniProt P51813); details: ZY0511 1 µM, read-out: Inhibition rate
T30 construct: purchased Eurofins Pharma Discovery Services (KinaseProfiler)
Method: as §1

Flt3 (D835Y) = target: T31, Flt3 (D835Y) (Homo sapiens, UniProt P36888, D835Y); details: ZY0511 1 µM, read-out: Inhibition rate
T31 construct: purchased Eurofins Pharma Discovery Services
Method: as §1

ATR/ATRIP = target: T32, ATR/ATRIP (Homo sapiens, UniProt Q13535)
T32 construct: purchased Eurofins Pharma Discovery Services
T32 sequence (Q13535 whole entry): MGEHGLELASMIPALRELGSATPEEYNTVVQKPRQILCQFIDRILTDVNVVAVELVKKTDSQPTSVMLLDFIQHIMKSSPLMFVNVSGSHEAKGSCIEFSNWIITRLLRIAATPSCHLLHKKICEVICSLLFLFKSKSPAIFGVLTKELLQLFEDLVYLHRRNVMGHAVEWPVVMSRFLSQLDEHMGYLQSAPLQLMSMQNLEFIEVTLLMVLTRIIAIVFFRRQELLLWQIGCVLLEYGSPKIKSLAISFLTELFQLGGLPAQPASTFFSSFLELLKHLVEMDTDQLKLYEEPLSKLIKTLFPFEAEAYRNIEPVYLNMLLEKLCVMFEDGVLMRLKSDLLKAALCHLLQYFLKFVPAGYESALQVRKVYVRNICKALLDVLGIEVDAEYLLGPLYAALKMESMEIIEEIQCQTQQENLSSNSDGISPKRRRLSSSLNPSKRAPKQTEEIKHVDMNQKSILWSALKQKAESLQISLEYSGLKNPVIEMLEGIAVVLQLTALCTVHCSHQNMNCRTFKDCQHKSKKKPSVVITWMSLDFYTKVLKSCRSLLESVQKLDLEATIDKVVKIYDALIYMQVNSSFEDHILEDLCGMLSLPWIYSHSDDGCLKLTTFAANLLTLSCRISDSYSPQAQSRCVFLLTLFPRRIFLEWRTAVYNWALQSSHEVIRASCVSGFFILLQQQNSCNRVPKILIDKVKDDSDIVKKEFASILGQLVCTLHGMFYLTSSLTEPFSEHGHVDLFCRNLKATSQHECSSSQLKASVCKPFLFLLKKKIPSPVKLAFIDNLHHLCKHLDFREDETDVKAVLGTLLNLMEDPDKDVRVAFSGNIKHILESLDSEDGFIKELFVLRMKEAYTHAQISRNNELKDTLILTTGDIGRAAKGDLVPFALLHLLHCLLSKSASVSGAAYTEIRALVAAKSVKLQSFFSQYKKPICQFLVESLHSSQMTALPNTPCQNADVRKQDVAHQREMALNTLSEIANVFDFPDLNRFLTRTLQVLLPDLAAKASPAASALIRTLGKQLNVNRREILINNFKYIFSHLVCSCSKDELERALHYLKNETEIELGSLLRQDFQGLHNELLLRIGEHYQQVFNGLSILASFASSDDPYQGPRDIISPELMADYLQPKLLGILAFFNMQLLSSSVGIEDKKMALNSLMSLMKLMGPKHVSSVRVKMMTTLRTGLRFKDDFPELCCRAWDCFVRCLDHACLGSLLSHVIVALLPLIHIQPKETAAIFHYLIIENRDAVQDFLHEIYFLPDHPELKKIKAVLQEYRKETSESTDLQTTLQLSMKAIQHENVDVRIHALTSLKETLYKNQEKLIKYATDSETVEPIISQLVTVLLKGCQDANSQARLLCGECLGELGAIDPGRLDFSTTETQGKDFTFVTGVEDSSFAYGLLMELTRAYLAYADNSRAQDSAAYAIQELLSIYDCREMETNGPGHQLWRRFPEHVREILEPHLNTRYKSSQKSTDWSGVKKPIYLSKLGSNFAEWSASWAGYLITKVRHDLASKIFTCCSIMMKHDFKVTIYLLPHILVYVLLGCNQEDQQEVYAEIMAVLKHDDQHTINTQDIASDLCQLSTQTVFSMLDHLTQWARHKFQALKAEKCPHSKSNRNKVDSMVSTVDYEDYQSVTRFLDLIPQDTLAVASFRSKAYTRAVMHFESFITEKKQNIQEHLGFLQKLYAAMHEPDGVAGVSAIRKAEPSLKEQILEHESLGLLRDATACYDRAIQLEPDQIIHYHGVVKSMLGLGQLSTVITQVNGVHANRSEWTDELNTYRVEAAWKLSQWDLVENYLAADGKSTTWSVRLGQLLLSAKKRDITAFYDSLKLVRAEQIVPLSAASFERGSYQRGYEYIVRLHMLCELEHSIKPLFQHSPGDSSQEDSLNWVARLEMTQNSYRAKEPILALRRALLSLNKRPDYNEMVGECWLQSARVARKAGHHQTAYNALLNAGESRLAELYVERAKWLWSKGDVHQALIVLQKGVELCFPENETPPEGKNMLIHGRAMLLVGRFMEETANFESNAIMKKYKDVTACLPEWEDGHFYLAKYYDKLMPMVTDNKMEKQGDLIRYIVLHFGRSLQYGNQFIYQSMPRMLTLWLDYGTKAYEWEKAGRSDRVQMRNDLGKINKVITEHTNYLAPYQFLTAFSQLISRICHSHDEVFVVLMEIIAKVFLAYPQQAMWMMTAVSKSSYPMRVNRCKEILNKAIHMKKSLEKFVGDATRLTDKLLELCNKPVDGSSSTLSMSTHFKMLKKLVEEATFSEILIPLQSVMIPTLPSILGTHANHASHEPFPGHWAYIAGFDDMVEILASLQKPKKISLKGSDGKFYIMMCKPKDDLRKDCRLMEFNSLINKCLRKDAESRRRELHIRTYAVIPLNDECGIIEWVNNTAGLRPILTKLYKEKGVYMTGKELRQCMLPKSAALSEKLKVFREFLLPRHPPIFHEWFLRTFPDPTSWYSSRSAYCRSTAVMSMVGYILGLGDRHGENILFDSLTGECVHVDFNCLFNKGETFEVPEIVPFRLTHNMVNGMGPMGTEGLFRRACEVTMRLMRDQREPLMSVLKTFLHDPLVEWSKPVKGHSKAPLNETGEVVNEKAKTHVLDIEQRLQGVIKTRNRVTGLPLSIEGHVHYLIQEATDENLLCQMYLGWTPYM
T32 sequence (Q8WXE1 whole entry partner): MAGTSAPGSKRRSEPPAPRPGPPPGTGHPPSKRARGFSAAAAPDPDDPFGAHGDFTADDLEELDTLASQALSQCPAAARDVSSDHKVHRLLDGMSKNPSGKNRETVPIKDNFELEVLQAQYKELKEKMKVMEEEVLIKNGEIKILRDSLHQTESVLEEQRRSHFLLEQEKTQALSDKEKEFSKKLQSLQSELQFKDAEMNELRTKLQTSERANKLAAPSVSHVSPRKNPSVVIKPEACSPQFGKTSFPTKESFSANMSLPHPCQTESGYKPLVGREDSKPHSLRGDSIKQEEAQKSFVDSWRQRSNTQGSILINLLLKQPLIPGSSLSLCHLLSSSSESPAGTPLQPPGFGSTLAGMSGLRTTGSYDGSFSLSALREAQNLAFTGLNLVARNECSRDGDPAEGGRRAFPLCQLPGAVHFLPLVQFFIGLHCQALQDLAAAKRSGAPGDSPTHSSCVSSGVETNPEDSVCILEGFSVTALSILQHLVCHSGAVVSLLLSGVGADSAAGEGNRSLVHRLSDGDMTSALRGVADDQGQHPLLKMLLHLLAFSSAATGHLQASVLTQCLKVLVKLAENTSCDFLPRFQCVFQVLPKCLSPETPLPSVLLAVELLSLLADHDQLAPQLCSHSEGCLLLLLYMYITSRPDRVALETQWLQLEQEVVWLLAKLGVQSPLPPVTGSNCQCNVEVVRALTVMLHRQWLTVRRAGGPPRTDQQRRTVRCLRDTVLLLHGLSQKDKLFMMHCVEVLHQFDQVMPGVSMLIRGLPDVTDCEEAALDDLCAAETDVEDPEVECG
Method: as §1

cSRC = target: T33, cSRC (Homo sapiens, UniProt P12931); details: ZY0511 1 µM, read-out: Activation rate
T33 construct: purchased Eurofins Pharma Discovery Services (KinaseProfiler)
Method: as §1

CK1γ2 = target: T34, CK1γ2 (Homo sapiens, UniProt P78368); details: ZY0511 1 µM, read-out: Inhibition rate
T34 construct: purchased Eurofins Pharma Discovery Services
Method: as §1

NIM1 = target: T35, NIM1 (Homo sapiens, UniProt Q8IY84); details: ZY0511 1 µM, read-out: Inhibition rate
T35 construct: purchased Eurofins Pharma Discovery Services
Method: as §1

FGFR4 = target: T36, FGFR4 (Homo sapiens, UniProt P22455); details: ZY0511 1 µM, read-out: Inhibition rate
T36 construct: purchased Eurofins Pharma Discovery Services
Method: as §1

PI3 Kinase (p110α/p85α) = target: T37, PI3 Kinase (p110α/p85α) (Homo sapiens, UniProt P42336); details: ZY0511 1 µM, read-out: Inhibition rate
T37 construct: purchased Eurofins Pharma Discovery Services (KinaseProfiler)
Method: as §1

HIPK2 = target: T38, HIPK2 (Homo sapiens, UniProt Q9H2X6); details: ZY0511 1 µM, read-out: Inhibition rate
T38 construct: purchased Eurofins Pharma Discovery Services
Method: as §1

TrkA = target: T39, TrkA (Homo sapiens, UniProt P04629); details: ZY0511 1 µM, read-out: Activation rate
T39 construct: purchased Eurofins Pharma Discovery Services (KinaseProfiler)
Method: as §1

[2] = ZY0511 1 µM, read-out: Inhibition rate

O=C(N/N=C1\CCc2c(Cl)ccc(O)c21)c1cccc(S(=O)(=O)N2CCOCC2)c1 [ZY0511, (E)‐N'‐(2, 3‐dihydro‐1H‐inden‐1‐ylidene) benzohydrazides]
inhibition at 1 µM (BRK): 4%
inhibition at 1 µM (PI3 Kinase (p120γ)): 10%
activation at 1 µM (EphB4): 5%
inhibition at 1 µM (Fms): 7%
inhibition at 1 µM (Tie2): 50%
inhibition at 1 µM (Abl (T315I)): 1%
inhibition at 1 µM (PI3 Kinase (p110δ/p85α)): 6%
activation at 1 µM (cKit (D816H)): 2%
inhibition at 1 µM (EGFR): 7%
inhibition at 1 µM (DNA-PK; DNA-PK, ZY0511 1 µM, read-out: Inhibition rate): 60%
IC50 (DNA-PK; DNA‐PK): > 10 µM
inhibition at 1 µM (MELK): 1%
inhibition at 1 µM (ROCK-I): 11%
inhibition at 1 µM (p70S6K): 11%
inhibition at 1 µM (MST3): 35%
inhibition at 1 µM (CK1γ1): 12%
inhibition at 1 µM (ZIPK): 6%
activation at 1 µM (PDGFRα): 33%
inhibition at 1 µM (PKCι): 2%
inhibition at 1 µM (PKCθ): 3%
inhibition at 1 µM (FGFR2): 11%
inhibition at 1 µM (Ros): 11%
IC50 (Flt4): > 10 µM
inhibition at 1 µM (Flt4; [2]): 62%
inhibition at 1 µM [1]: 15%
activation at 1 µM (Ret): 15%
inhibition at 1 µM (PAK4): 20%
inhibition at 1 µM (EGFR (L861Q)): 6%
Activation rate (ARK5): 6%
inhibition at 1 µM (EGFR (L858R)): 8%
activation at 1 µM (ALK): 23%
inhibition at 1 µM (Bmx): 17%
inhibition at 1 µM (Flt3 (D835Y)): 11%
IC50 (ATR/ATRIP): 9.59 µM
inhibition at 1 µM (ATR/ATRIP; [2]): 62%
activation at 1 µM (cSRC): 4%
inhibition at 1 µM (CK1γ2): 13%
inhibition at 1 µM (NIM1): 2%
inhibition at 1 µM (FGFR4): 14%
inhibition at 1 µM (PI3 Kinase (p110α/p85α)): 6%
inhibition at 1 µM (HIPK2): 13%
activation at 1 µM (TrkA): 3%
